Tests used:
[1] = system: creatinine iminohydrolase; assay: Creatinine iminohydrolase activity, Small-scale Enzyme Production (Procedure 2; GDH assay); type: cell-based, ATCC 31546 (tentatively Flavobacterium filamentosum); conditions: for growth of the culture and enzyme production (in words) / creatinine iminohydrolase yield of microbial cells (in words): carbon source; for growth of the culture and enzyme production (in words): Example 2; for Optimum Concentration (carbon source): concentration which produced the highest creatinine iminohydrolase activity, Table II; for optimum concentration: fumaric acid as carbon source and creatinine varied simultaneously, Example 3
Protocol: (§1) A fresh sample of culture grown for two days on Medium No. 1 slants as described in Procedure 1 above was obtained. From this slant, a loopful of culture was inoculated into 25 ml of a microbial growth medium of the type employed in the present invention contained in a 250 ml Erlenmeyer flask. The microbial growth medium employed consisted of Tryp-Soy Broth, referred to hereinabove. Following inoculation of the culture into the Erlenmeyer flask, the flask was shaken at 200 rpm at 30° C. for eight hours to produce good cellular growth without lysis of the microbial cells. Thereafter, a sample of the contents of the flask was microscopically inspected for culture purity and then aseptically centrifuged at 15,000 xg in a refrigerated centrifuge (available from DuPont Instruments, Newton, CT) for 15 minutes to separate the cells from the Tryp-Soy Broth. The supernatant containing the Tryp-Soy Broth was discarded, and the solid material containing the precipitated microbial cells was then re-suspendedin a volume of sterile distilled water equal to that present before centrifugation. 2 ml of this latter suspension was then used as an inoculum for a 250 ml Erlenmeyer flask containing 25 ml of a production medium to obtain further cell growth and to promote enzyme production by the microorganism. The specific composition of the production medium was varied as described in the following examples. However, in each case, once the microorganism was transferred as a 2-ml inoculum to the flask containing the particular production medium of interest, the flask was shaken at 30° C., 200 rpm for 10 hours. Thereafter, samples of the culture were withdrawn, diluted and dry-cell weight was determined. In addition, a 2.5 ml aliquot of the culture was centrifuged at 15,000 xg in a refrigerated centrifuge to separate the cells from the production medium. The supernatant containing the production medium was discarded. The precipitated cells were disrupted as in Procedure 4 below, and enzyme activity was assayed as described in Procedure 5 below.
(§2) 0.2 ml of an enzyme solution and 0.4 ml of cell suspension were added to 1.4 ml of 0.05 M tris(hydroxymethyl)aminomethane (tris) buffer, pH 8.5, and 10^-3 M (ethylenedinitrilo)tetraacetic acid, dipotassium salt (K2 EDTA). The aforementioned enzyme solution contained per ml of deionized water: 2.5 mg lysozyme, 1 mg bovine pancreatic deoxyribonuclease, and 1 mg bovine pancreatic ribonuclease. The amount of cell suspension was adjusted to give a final optical density of about 1.0, and the final volume was made to 2.0 ml with tris buffer. The suspension was shaken in a water bath at 37° C. for 20 minutes. The cell debris was removed by centrifugation at 27,000 xg in a refrigerated centrifuge, and the supernatant was assayed for enzyme activity as described in Procedure 5 below.
(§3) To determine the creatinine iminohydrolase activity described in the Examples, a L-glutamic dehydrogenase, "GDH", assay method was employed. In the GDH assay method, production of ammonia from creatinine, which represents the activity of a creatinine iminohydrolase enzyme preparation,is measured using NADPH (nicotinamide-adenine dinucleotride phosphate, reduced form) in a GDH-catalyzed reaction as follows:
Creatinine is hydrolyzed to ammonia via the unknown activity of a creatinine iminohydrolase sample, and the resultant ammonia reacts with the reagent α-ketoglutaric acid in the presence of GDH as catalyst to produce glutamic acid. The latter reaction catalyzed by GDH uses the NADPH oxidation reaction (NADPH→NADP), the disappearance of the NADPH absorption peak at 340 nm providing the spectroscopically detectable means for monitoring the assay. That is, the rate of NADPH disappearance measures the rate of glutamic acid production which, in turn, measures the rate of ammonia production.

microorganism ATCC 31546 [2] = assay: Dry cell weight, Small-scale Enzyme Production (Procedure 2); type: cell-based, tentatively Flavobacterium filamentosum (ATCC 31546); conditions: Procedure No. 2; glucose 1.0 wt% added, or control 0.0 wt%
Protocol: as §1, with “The specific composition of the production medium was varied as described in the following examples. However, in each case, once the microorganism was transferred as a 2-ml inoculum to the flask containing the particular production medium of interest, the flask was shaken at 30° C., 200 rpm for 10 hours.” left out, “In addition, a 2.5 ml aliquot of the culture was centrifuged at 15,000 xg in a refrigerated centrifuge to separate the cells from the production medium. The supernatant containing the production medium was discarded. The precipitated cells were disrupted as in Procedure 4 below, and enzyme activity was assayed as described in Procedure 5 below.” left out

microorganism ATCC 31546 [3] = assay: Dry cell weight / growth, Large-scale Enzyme Production (Procedure 3); type: cell-based, tentatively Flavobacterium filamentosum (ATCC 31546); conditions: Procedure No. 3; glucose 1.0 wt% added, or control 0.0 wt%
Protocol: Large-scale enzyme production was carried out using a 150-liter fermentor as follows:
First, following the same steps described in Procedure 2 above, a fresh sample of the microorganism ATCC 31546 culture which had been grown for two days on Medium No. 1 slants was transferred into 25 ml of microbial growth medium contained in a 250-ml Erlenmeyer flask. The microbial growth medium was the same as that described in Procedure 2 above. The first stage of inoculum growth in the microbial growth medium was carried out by shaking the flask at 200 rpm, 25° C. for 12 hours. A sample of the contents of the flask was thereafter microscopically inspected for culture purity. Thereafter, in the second stage of inoculum growth in the microbial growth medium, the contents of two 250-ml Erlenmeyer flasks containing first-stage culture were transferred aseptically to a 14-liter fermentor containing 10 liters of sterilized microbial growth medium having the composition described in Procedure 2 above and also containing 0.01 wt% of a polyglycol anti-foam agent sold under the tradename Polyglycol P-2000 by Dow Chemicals, Midland, MI. […] At this point, a sufficient quantity of cells was available to form an inoculum for the 150-liter fermentor. […] Dissolved oxygen concentration and pH were monitored continuously throughout the 12-hour period. […]

[4] = system: creatinine iminohydrolase; assay: Creatinine iminohydrolase activity, Large-scale Enzyme Production (Procedure 3; GDH assay); type: cell-based, ATCC 31546 (tentatively Flavobacterium filamentosum); conditions: Procedure No. 3; glucose 1.0 wt% added, or control 0.0 wt%
Protocol: as §2
as §3, with “follows: […]” for “follows:”

[5] = carbon source at optimum concentration, control 1.0 wt% fumaric acid

Structure (SMILES) | Creatinine Iminohydrolase Activity % of Control [1, 5] | growth of the culture and enzyme production (in words) [1] | Optimum Concentration (carbon source) [1] [Wt. %] | creatinine iminohydrolase yield of microbial cells (in words) [1] | other results
CC(O)C(=O)O (stereo not drawn) [Lactic Acid] | 8 % of Control | acceptable levels of microbial growth and enzyme production | 0.5 | – | –
C[C@H](N)C(=O)O [Alanine] | 35 % of Control | – | 1.0 | – | –
O=C(O)CCC(=O)C(=O)O [Ketoglutaric Acid, α-Ketoglutaric acid] | 205 % of Control | good growth of the microorganism and produced more than twice as much enzyme as did the fumaric acid control | 1.0 | – | –
N[C@@H](CCC(=O)O)C(=O)O [Glutamic Acid] | – | the culture grew well but these sources repressed enzyme synthesis | 1.0 | yielding only small amounts of creatinine iminohydrolase | –
OC[C@H]1O[C@@](CO)(O[C@H]2O[C@H](CO)[C@@H](O)[C@H](O)[C@H]2O)[C@@H](O)[C@@H]1O [Sucrose] | – | did not support the growth of the culture or produce a detectable amount of enzyme | 0.5 | yielding only small amounts of creatinine iminohydrolase | –
O=C(O)CCC(=O)O [Succinic Acid] | 49 % of Control | acceptable levels of microbial growth and enzyme production | 1.0 | – | –
OC[C@H]1OC(O)[C@H](O)[C@@H](O)[C@@H]1O (stereo partly drawn) [Glucose] | 51 % of Control | acceptable levels of microbial growth and enzyme production | 1.0 | – | Dry Cell Weight (microorganism ATCC 31546 [2]): 3.31 g/L; Creatinine Iminohydrolase Activity % of Control ([1]; Procedure No. 2, glucose 1.0 wt% added, or control 0.0 wt%): 135 % of Control; Dry Cell Weight (microorganism ATCC 31546 [3]): 3.92 g/L; Creatinine Iminohydrolase Activity [4]: 720 U/liter; Creatinine Iminohydrolase Activity % of Control [4]: 134 % of Control
N[C@@H](CC(=O)O)C(=O)O [Aspartic Acid] | – | the culture grew well but these sources repressed enzyme synthesis | 1.0 | yielding only small amounts of creatinine iminohydrolase | –
CC(=O)O [Acetic Acid] | – | did not support the growth of the culture or produce a detectable amount of enzyme | 0.1 | yielding only small amounts of creatinine iminohydrolase | –
O=C(O)/C=C/C(=O)O [Fumaric Acid, Fumaric acid] | 100 % of Control | good enzyme production and good growth of the microorganism | 1.0 | – | optimum concentration [1]: 1.0%
CN1CC(=O)NC1=N [Creatinine] | – | – | – | – | optimum concentration [1]: 0.5%
NCC(=O)O [Glycine] | – | did not support the growth of the culture or produce a detectable amount of enzyme | 0.5 | yielding only small amounts of creatinine iminohydrolase | –
OCC(O)CO [Glycerol] | – | did not support the growth of the culture or produce a detectable amount of enzyme | 0.5 | yielding only small amounts of creatinine iminohydrolase | –
CC(=O)C(=O)O [Pyruvic Acid] | 105 % of Control | supported good enzyme production although somewhat lower growth of the microorganism was obtained | 0.5 | – | –
O=C(O)CC(O)(CC(=O)O)C(=O)O [Citric Acid] | 71 % of Control | acceptable levels of microbial growth and enzyme production | 1.0 | – | –
O=C(O)CC(O)C(=O)O (stereo not drawn) [Malic Acid] | 100 % of Control | acceptable levels of microbial growth and enzyme production | 1.0 | – | –

Reference: patent US4275164A, “Process and nutrient medium for growing microorganism” (priority 1979, dated 1981)
